Data published in US11046680B1, “Heteroaryl-substituted triazoles as APJ receptor agonists” (priority 2016, dated 2021).

biological target: human APJ receptor (Homo sapiens (Human), UniProt P35414); experiment: biochemical; assay type: biochemical; conditions: [35S]GTPγS binding, CHO membranes expressing human APJ receptor; read-out: Activity hAPJ SPA EC50 IP
Procedure, shortened: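 Membranes of a stable CHO line carrying human APJ (pFLAG-CMV-3) were used in a GTPγS binding format; buffer GDP, MgCl2 and NaCl were optimized, and plates were read after 90 min at RT.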

Sequence of human APJ receptor (P35414 whole entry): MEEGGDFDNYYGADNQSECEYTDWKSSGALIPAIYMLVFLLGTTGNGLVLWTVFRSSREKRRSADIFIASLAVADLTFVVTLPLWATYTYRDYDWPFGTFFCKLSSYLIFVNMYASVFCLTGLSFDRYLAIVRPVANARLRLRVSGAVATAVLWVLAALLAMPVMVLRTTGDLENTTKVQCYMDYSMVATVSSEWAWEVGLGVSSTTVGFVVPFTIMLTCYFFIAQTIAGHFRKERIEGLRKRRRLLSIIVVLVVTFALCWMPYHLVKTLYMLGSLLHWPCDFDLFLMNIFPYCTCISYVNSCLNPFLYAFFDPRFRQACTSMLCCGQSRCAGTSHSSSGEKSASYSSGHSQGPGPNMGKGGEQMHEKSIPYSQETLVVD

| Compound | EC50 |
| --- | --- |
| COc1cccc(OC)c1-n1c(NS(=O)(=O)CCc2ccc(Cl)cc2)nnc1-c1cnco1 [Example 138.0, 2-(4-chlorophenyl)-N-(4-(2,6-dimethoxyphenyl)-5-(oxazol-5-yl)-4H-1,2,4-triazol-3-yl)ethanesulfonamide] | 586 nM |
| COc1ccccc1-n1c(NS(=O)(=O)CCc2ccccc2)nnc1-c1cccs1 [Example 238.0, N-(4-(2-methoxyphenyl)-5-(2-thiophenyl)-4H-1,2,4-triazol-3-yl)-2-phenylethanesulfonamide] | 226 nM |
| COc1cccc(OC)c1-n1c(NS(=O)(=O)[C@H](C)[C@@H](C)c2ncc(Cl)cn2)nnc1-c1ccn(C)n1 [Example 443.0, (2R,3S)-3-(5-chloropyrimidin-2-yl)-N-(4-(2,6-dimethoxyphenyl)-5-(1-methyl-1H-pyrazol-3-yl)-4H-1,2,4-triazol-3-yl)butane-2-sulfonamide] | 6.4 nM |
| COc1ncnc(OC)c1-n1c(NS(=O)(=O)[C@@H](C)[C@@H](OC(C)C)c2cnc(C)cn2)nnc1-c1ccn(C)n1 [Example 461.0, (1S,2S)-N-(4-(4,6-dimethoxy-5-pyrimidinyl)-5-(1-methyl-1H-pyrazol-3-yl)-4H-1,2,4-triazol-3-yl)-1-(5-methyl-2-pyrazinyl)-1-(2-propanyloxy)-2-propanesulfonamide] | 9 nM |
| COc1cccc(OC)c1-n1c(NS(=O)(=O)[C@@H](C)[C@H](OC)c2cnc(C)cn2)nnc1-c1cc2n(n1)CCC2 [Example 216.0, (1R,2S)-N-(5-(5,6-dihydro-4H-pyrrolo[1,2-b]pyrazol-2-yl)-4-(2,6-dimethoxyphenyl)-4H-1,2,4-triazol-3-yl)-1-methoxy-1-(5-methyl-2-pyrazinyl)-2-propanesulfonamide] | 3.7 nM |
| COc1cccc(OC)c1-n1c(NS(=O)(=O)[C@@H](C)[C@H](O)c2ncc(C)cn2)nnc1-c1cc(C)n[nH]1 [Example 349.0, (1R,2S)-N-(4-(2,6-Dimethoxyphenyl)-5-(3-methyl-1H-pyrazol-5-yl)-4H-1,2,4-triazol-3-yl)-1-hydroxy-1-(5-methylpyrimidin-2-yl)propane-2-sulfonamide] | 2.1 nM |
| COc1ncnc(OC)c1-n1c(NS(=O)(=O)[C@@H](C)[C@H](OC)c2ncc(Cl)cn2)nnc1-c1noc2ccccc12 [Example 420.0, (1R,2S)-N-(5-(benzo[d]isoxazol-3-yl)-4-(4,6-dimethoxypyrimidin-5-yl)-4H-1,2,4-triazol-3-yl)-1-(5-chloropyrimidin-2-yl)-1-methoxypropane-2-sulfonamide] | 27 nM |
| COc1cccc(OC)c1-n1c(NS(=O)(=O)CCc2ccc(Cl)cc2)nnc1-c1nc(C)cs1 [Example 142.0, 2-(4-chlorophenyl)-N-(4-(2,6-dimethoxyphenyl)-5-(4-methylthiazol-2-yl)-4H-1,2,4-triazol-3-yl)ethanesulfonamide] | 17 nM |
| CCO[C@H](c1ncc(Cl)cn1)[C@H](C)S(=O)(=O)Nc1nnc(-c2cc(C)n[nH]2)n1-c1c(OC)cccc1OC [Example 392.0, (1R,2S)-1-(5-Chloropyrimidin-2-yl)-N-(4-(2,6-dimethoxyphenyl)-5-(3-methyl-1H-pyrazol-5-yl)-4H-1,2,4-triazol-3-yl)-1-ethoxypropane-2-sulfonamide] | 1 nM |
| COCC(COC)n1c(NS(=O)(=O)[C@@H](C)[C@H](C)c2ncc(Cl)cn2)nnc1-c1nn(C)c2ccc(C)cc12 [Example 448.0, (2S,3R)-3-(5-chloropyrimidin-2-yl)-N-(4-(1,3-dimethoxypropan-2-yl)-5-(1,5-dimethyl-1H-indazol-3-yl)-4H-1,2,4-triazol-3-yl)butane-2-sulfonamide] | 10 nM |
| COc1cccc(OC)c1-n1c(NS(=O)(=O)[C@@H](C)[C@H](OC)c2ncc(Cl)cn2)nnc1-c1c[nH]cn1 [Example 523.0, (1R,2S)-1-(5-chloropyrimidin-2-yl)-N-(4-(2,6-dimethoxyphenyl)-5-(1H-imidazol-4-yl)-4H-1,2,4-triazol-3-yl)-1-methoxypropane-2-sulfonamide] | 3.2 nM |
| COc1ccccc1-n1c(NS(=O)(=O)[C@@H](C)[C@H](C)c2ncc(F)cn2)nnc1-c1ccn(C)n1 [Example 269.0, (2S,3R)-3-(5-fluoro-2-pyrimidinyl)-N-(4-(2-methoxyphenyl)-5-(1-methyl-1H-pyrazol-3-yl)-4H-1,2,4-triazol-3-yl)-2-butanesulfonamide] | 8.7 nM |
| CCS(=O)(=O)Nc1nnc(-c2cc([C@@H](O)c3ccc(Cl)cc3S(C)(=O)=O)n(C)n2)n1-c1c(OC)cccc1OC [Example 382.0, N-(5-(5-((R)-(4-Chloro-2-(methylsulfonyl)phenyl)(hydroxy)methyl)-1-methyl-1H-pyrazol-3-yl)-4-(2,6-dimethoxyphenyl)-4H-1,2,4-triazol-3-yl)ethanesulfonamide and N-(5-(5-((S)-(4-chloro-2-(methylsulfonyl)phenyl)(hydroxy)methyl)-1-methyl-H-pyrazol-3-yl)-4-(2,6-dimethoxyphenyl)-4H-1,2,4-triazol-3-yl)ethanesulfonamide] | 260 nM |
| COc1cccc(OC)c1-n1c(NS(=O)(=O)[C@H](C)[C@@H](OC)c2ncc(F)cn2)nnc1-c1ccn(C)n1 (single isomer, unassigned) [Example 118.0, (1S,2R)-N-(4-(2,6-dimethoxyphenyl)-5-(1-methyl-1H-pyrazol-3-yl)-4H-1,2,4-triazol-3-yl)-1-(5-fluoropyrimidin-2-yl)-1-methoxypropane-2-sulfonamide or (1R,2S)-N-(4-(2,6-dimethoxyphenyl)-5-(1-methyl-1H-pyrazol-3-yl)-4H-1,2,4-triazol-3-yl)-1-(5-fluoropyrimidin-2-yl)-1-methoxypropane-2-sulfonamide] | 100 nM |
| COc1cccc(OC)c1-n1c(NS(=O)(=O)[C@@H](C)Cc2ncc(C)cn2)nnc1-c1nc(C)cs1 (single isomer, unassigned) [Example 9.0, (2S)-N-(4-(2,6-dimethoxyphenyl)-5-(4-methyl-1,3-thiazol-2-yl)-4H-1,2,4-triazol-3-yl)-1-(5-methyl-2-pyrimidinyl)-2-propanesulfonamide or (2R)-N-(4-(2,6-dimethoxyphenyl)-5-(4-methyl-1,3-thiazol-2-yl)-4H-1,2,4-triazol-3-yl)-1-(5-methyl-2-pyrimidinyl)-2-propanesulfonamide] | 11 nM |
| COc1cccc(OC)c1-n1c(NS(=O)(=O)[C@@H](C)[C@H](OC)c2ncc(Cl)cn2)nnc1-c1cnn2c1CCC2 [Example 488.0, (1R,2S)-1-(5-chloropyrimidin-2-yl)-N-(5-(5,6-dihydro-4H-pyrrolo[1,2-b]pyrazol-3-yl)-4-(2,6-dimethoxyphenyl)-4H-1,2,4-triazol-3-yl)-1-methoxypropane-2-sulfonamide] | 0.2 nM |
| CNC(=O)n1ccc(-c2nnc(NS(=O)(=O)[C@@H](C)Cc3ncc(F)cn3)n2-c2c(OC)cccc2OC)n1 (racemic) [Example 72.0, (R)-3-(4-(2,6-dimethoxyphenyl)-5-(2-(5-fluoropyrimidin-2-yl)-1-methylethylsulfonamido)-4H-1,2,4-triazol-3-yl)-N-methyl-1H-pyrazole-1-carboxamide (S)-3-(4-(2,6-dimethoxyphenyl)-5-(2-(5-fluoropyrimidin-2-yl)-1-methylethylsulfonamido)-4H-1,2,4-triazol-3-yl)-N-methyl-1H-pyrazole-1-carboxamide] | 41 nM |
| (R)-N-(4-(2,6-dimethoxyphenyl)-5-(1H-pyrazol-3-yl)-4H-1,2,4-triazol-3-yl)-1-(5-fluoropyrimidin-2-yl)propane-2-sulfonamide and (S)-N-(4-(2,6-dimethoxyphenyl)-5-(1H-pyrazol-3-yl)-4H-1,2,4-triazol-3-yl)-1-(5-fluoropyrimidin-2-yl)propane-2-sulfonamide [Example 71.0] | 41 nM |
| O=S(=O)(CCc1ccccc1)Nc1nnc(-c2ccc(F)s2)n1-c1ccccc1OC(F)F [Example 246.0, N-(4-(2-(difluoromethoxy)phenyl)-5-(5-fluoro-2-thiophenyl)-4H-1,2,4-triazol-3-yl)-2-phenylethanesulfonamide] | 39 nM |
| COc1cccc(OC)c1-n1c(NS(=O)(=O)CCN2C(=O)N(C)CC[C@@H]2C)nnc1-c1nc(C)cs1 [Example 13.0, N-(4-(2,6-dimethoxyphenyl)-5-(4-methyl-1,3-thiazol-2-yl)-4H-1,2,4-triazol-3-yl)-2-((6S)-3,6-dimethyl-2-oxotetrahydro-1(2H)-pyrimidinyl)ethanesulfonamide] | 2.9 nM |
| COc1cccc(OC)c1-n1c(NS(=O)(=O)CCc2ccc(F)cc2C#N)nnc1-c1nc(C(C)C)cs1 [Example 151.0, 2-(2-cyano-4-fluorophenyl)-N-(4-(2,6-dimethoxyphenyl)-5-(4-isopropylthiazol-2-yl)-4H-1,2,4-triazol-3-yl)ethanesulfonamide] | 31 nM |
| COc1ccc(N2CCC2=O)cc1-n1c(NS(=O)(=O)CCc2ccc(F)cc2C#N)nnc1-c1cccs1 [Example 132.0, 2-(2-Cyano-4-fluorophenyl)-N-(4-(2-methoxy-5-(2-oxoazetidin-1-yl)phenyl)-5-(thiophen-2-yl)-4H-1,2,4-triazol-3-yl)ethanesulfonamide] | 0.24 nM |
| COc1cccc(OC)c1-n1c(NS(=O)(=O)[C@@H](C)[C@H](OC)c2ncc(C)cn2)nnc1-c1cc(C)on1 [Example 425.0, (1R,25)-N-(4-(2,6-dimethoxyphenyl)-5-(5-methylisoxazol-3-yl)-4H-1,2,4-triazol-3-yl)-1-sulfonamide] | 8.1 nM |
| COc1cccc(OC)c1-n1c(NS(=O)(=O)[C@@H](C)[C@H](C)c2ncc(Cl)cn2)nnc1-c1n[nH]c2ccccc12 [Example 429.0] | 7.6 nM |
| CCOC(=O)c1ccc(OC)c(-n2c(NS(=O)(=O)CCc3ccc(Cl)cc3)nnc2-c2cccs2)c1 [Example 28.0, Ethyl 3-(3-(2-(4-chlorophenyl)ethylsulfonamido)-5-(thiophen-2-yl)-4H-1,2,4-triazol-4-yl)-4-methoxybenzoate] | 6 nM |
